The structures appear in SMILES notation.

The test addresses Tyrosine-protein kinase BTK (Homo sapiens, UniProt Q06187). The test can be described thus: Inhibition Assay: The inhibitory properties of compounds relative to BTK is determined using a black 384-well-plate format in a buffer which contains 50 mM Hepes, 10 mM NaCl, 10 mM MgCl2, 0.2 mM EDTA, 0.01% Brij35®, 1 mM DTT, and 0.1 mg/mL BSA at pH 7.3. The test compound is prepared in DMSO using 2-fold serial dilutions for 11 data points, which are added to the buffer so that each dilution contains 3% DMSO. […] The reaction mixtures are incubated at room temperature for 60 minutes and then quenched by adding 25 μL of 50 mM EDTA. To quantify the fluorescent-labeled substrate and product following reaction, the test plate is loaded on a Caliper LC-3000, which measures percent of conversion by microfluidic-based separation.

Tyrosine-protein kinase BTK, sequence (Q06187 whole entry): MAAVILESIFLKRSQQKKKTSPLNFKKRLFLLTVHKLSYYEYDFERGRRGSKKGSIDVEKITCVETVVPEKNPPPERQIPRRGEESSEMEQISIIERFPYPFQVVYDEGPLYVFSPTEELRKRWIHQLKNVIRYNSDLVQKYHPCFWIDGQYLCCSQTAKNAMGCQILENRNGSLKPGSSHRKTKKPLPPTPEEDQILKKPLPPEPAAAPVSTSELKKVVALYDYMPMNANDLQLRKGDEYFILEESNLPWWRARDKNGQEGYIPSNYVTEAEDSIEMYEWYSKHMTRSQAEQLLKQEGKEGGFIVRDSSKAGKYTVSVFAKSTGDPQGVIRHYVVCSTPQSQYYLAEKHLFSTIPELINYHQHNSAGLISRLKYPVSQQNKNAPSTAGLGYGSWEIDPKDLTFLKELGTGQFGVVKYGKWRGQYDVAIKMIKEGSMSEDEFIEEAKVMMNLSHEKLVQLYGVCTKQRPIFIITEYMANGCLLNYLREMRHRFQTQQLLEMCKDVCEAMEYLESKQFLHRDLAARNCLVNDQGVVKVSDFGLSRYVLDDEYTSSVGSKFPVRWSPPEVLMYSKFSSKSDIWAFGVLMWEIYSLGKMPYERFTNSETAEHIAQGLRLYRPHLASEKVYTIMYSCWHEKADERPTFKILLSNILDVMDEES

Consider `C=CC(=O)N1CC[C@H](Oc2nc(-c3n[nH]c(=O)[nH]3)cc3cccc(F)c23)C1`, for which the IC50 was less than 1.26 nM.
The result for `C=CC(=O)N1CC[C@H](Oc2nc(-c3n[nH]c(=O)[nH]3)cc3ccc(Cl)cc23)C1` reads less than 1.26 nM.

A word on the IC50: it is the concentration that inhibits the measured activity by half.

(Values after ChEMBL document CHEMBL5726562, “Pyridinyl and fused pyridinyl triazolone derivatives” (2017).)
